The values that follow come from US7557123B2, “Heterocyclic compound and medicinal use thereof” (Kyoto Pharmaceutical Industries, Ltd., priority 2001, dated 2009).

One series has as its system male KK-A^y mice. Briefly: Hypoglycemic and hypolipidemic activity in spontaneously diabetic KK-Ay mice. In kind it is in vivo. The following applies: 10 mg/kg/day orally for 4 consecutive days, plasma 24 hours after final administration, non-fasting, vs control group. How it is done: Blood was drawn under a non-fasting state from the tail vein of male KK-A^y mice, and the glucose and triglyceride levels of the plasma were measured using commercially available assay kits (glucose CII-test WAKO and triglyceride G-test WAKO, Wako Pure Chemical Industries, Ltd.). The mice were grouped (5 mice per group) into a control group and an administration group, such that the mean and standard deviation of the body weight and the plasma glucose and plasma triglyceride levels in each group were nearly the same. The test compounds (compounds of Examples 1, 2, 4, 8, 20, 22, 24, 27, 30, 33, 36, 37, 40, 45, 47, 52, 56, 58 and 64) were suspended in 5% gum arabic solution and administered (10 mg/kg/day) orally to the administration group for 4 consecutive days. The 5% gumarabic solution was orally administered to the control group. Blood was drawn under a non-fasting state from the tail vein 24 hours after the final administration and the glucose and triglyceride levels of the plasma were measured. The decrease in the plasma glucose and triglyceride levels was calculated from the following formula. Decrease (%)=[(mean of control group−mean of test compound administration group)/mean of control group]×100 Results

The test system of the next series is male db/db mice. Briefly: Hypoglycemic and hypolipidemic activity in db/db mice. In kind it is in vivo. The settings on record: 3 mg/kg/day orally for 2 consecutive weeks, plasma 24 hours after final administration, non-fasting, vs control group. How it is done: Using db/db mice genetically showing high plasma glucose, hypertriglyceridemia, insulin resistance and obesity, the pharmacological activity of the test compounds of Examples 1, 2 and 20 was examined.
Blood was drawn under a non-fasting state from the tail vein of male db/db mice, the glucose level and triglyceride level of the plasma were measured using commercially available assay kits (glucose CII-test WAKO and triglyceride G-test WAKO, Wako Pure Chemical Industries, Ltd.). The mice were grouped (6 mice per group) into a control group and test compound (compounds of Examples 1, 2 and 20) administration group (3 mg/kg/day), such that the mean and standard deviation of the body weight and the plasma glucose and plasma triglyceride levels in each group were nearly the same. The test compound was suspended in 0.5% methylcellulose solution and administered orally for 2 consecutive weeks from the next day. The 0.5% methylcellulose solution was orally administered to the control group. Blood was drawn under a non-fasting state from the tail vein 24 hours after the final administration and the glucose and triglyceride levels of the plasma were measured. The decrease in the plasma glucose and triglyceride levels was calculated from the following formula. Decrease (%)=[(mean of control group−mean of test compound administration group)/mean of control group]×100 Results

In another series the test system is male ICR mice. Briefly: Toxicity by repeat administration in ICR mice. It is filed as in vivo. The settings on record: 30 and 100 mg/kg/day orally for 2 consecutive weeks, vs control group. How it is done: Using 7-week-old male ICR mice, toxicity by repeat administration was examined.
The mice were grouped (7 mice per group) into a control group and test compound (compounds of Examples 2 and 20) administration groups (30 and 100 mg/kg/day), such that the mean and the standard deviation of the body weight of the mice were nearly the same. The test compound was suspended in 0.5% methylcellulose solution and administered orally for 2 consecutive weeks from the next day. The 0.5% methylcellulose solution was orally administered to the control group. At 24 hours after the final administration, Evans blue (100 μg/mouse) was administered from the tail vein and, 5 min later, the blood was drawn from the orbital venous plexus with anesthesia. Using EDTA-added blood, hematocrit value and erythrocyte count were measured. Using the plasma, Evans blue concentration was measured, from which plasma volume was calculated. The liver and heart were removed and wet weight was measured.

The test system of another series is female Wistar rats. Description: Toxicity by repeat administration in Wistar rats. It is filed as in vivo. The settings on record: 30 and 100 mg/kg/day orally for 2 consecutive weeks, vs control group. The protocol: Using 6-week-old female Wistar rats, toxicity by repeat administration was examined.
The rats were grouped (6 rats per group) into a control group and test compound (compounds of Examples 2 and 20) administration groups (30 and 100 mg/kg/day), such that the mean and the standard deviation of the body weight of the rats were nearly the same. The test compound was suspended in 0.5% methylcellulose solution and administered orally for 2 consecutive weeks from the next day. The 0.5% methylcellulose solution was orally administered to the control group. The rats were fasted for 16 hr from the last day of administration, anesthetized by intraperitoneal administration of pentobarbital sodium (50 mg/kg) 24 hr after the final administration and the blood was drawn. Using EDTA-added blood, hematocrit value and erythrocyte count were measured, and using serum, AST (GOT) and ALT (GPT) were measured. In addition, the white fat around the uterus, and the liver and heart were removed and the wet weights thereof were measured.

Series [1] is described as follows: Solubility of the compound in water (buffer pH 7.0). The following applies: 25 mg in 1.0 ml buffer pH 7.0, shaken at 25° C. for 1 hr, filtrate by HPLC. In kind it is physicochemical. The protocol:
The pulverized test compound (compounds of Examples 2, 20, 22, 24, 27, 30, 40 or 65, 25 mg) was added to a buffer (1.0 ml, pH 7.0) and the mixture was shaken at 25° C. for 1 hr and passed through a membrane filter. The concentration of the test compound in the filtrate was measured by high performance liquid chromatography.

As for `CC(C)(C)N.CC=CC=CC(=O)N1Cc2cc(OCCc3nc(/C=C/CC(C)C)oc3C)ccc2C[C@H]1C(=O)O` (stereo in doubt) [Example 20, tert-butylamine 2-(2,4-hexadienoyl)-7-{2-[5-methyl-2-(4-methyl-trans-1-penten-1-yl)oxazol-4-yl]ethoxy}-1,2,3,4-tetrahydroisoquinoline-(3S)-carboxylate], in the series with male KK-A^y mice, the “Decrease (%) in glucose level” value is reported as 57.7% and the “Decrease (%) in triglyceride level” value turned out to be 65.6%. Moreover, in the series on male db/db mice, the “Decrease (%) in glucose level” value stood at 54.0% and the “Decrease (%) in triglyceride level” value is on record as 72.0%. Besides, in the series on male ICR mice (calculated from Evans blue concentration), the plasma volume result was “no significant difference”. Besides, in the series with male ICR mice, the body weight entry was “no significant difference”, the erythrocyte count entry is listed as “no significant difference” and the hematocrit value entry is “no significant difference”. Also, in the series on male ICR mice (wet weight), the “weight of the heart” value is listed as “no significant difference” and the “weight of the liver” value was “no significant difference”. Further, in the series with female Wistar rats (serum), the “ALT (GPT)” value is recorded as “no significant difference” and the “AST (GOT)” value is “no significant difference”. Moreover, in the series with female Wistar rats, the erythrocyte count result is “no significant difference” and the hematocrit value entry was “no significant difference”. Also, in the series with female Wistar rats (wet weight), the “weight of the heart” value is listed as “no significant difference”, the “weight of the liver” value is recorded as “no significant difference” and the “weight of the white fat around the uterus” value is listed as “no significant difference”. For the same compound, the “Solubility (mg/ml)” value in series [1] is on record as 25 or above mg/ml.
